Consider 10 compounds from article PMC3025325, “Identification of a κ-opioid agonist as a potent and selective lead for drug development against human African trypanosomiasis” (Biochemical Pharmacology, 2010).

The subject of test [1] is T. brucei. The experiment in a line: DMSO tolerance of the resazurin assay, T. brucei. The format is cell-based. The procedure: (§1) DMSO was serially diluted across a 96-well plate in 200 μl of the appropriate medium. For T. brucei, 100 μl aliquots were then transferred to a plate containing 100 μl cells at 2 × 10^3 ml^−1. Human fibroblasts were plated at 2 × 10^4 ml^−1 in 100 μl of medium and incubated overnight to allow cells to adhere before the addition of medium containing DMSO (100 μl) over a range of concentrations. Parasites and mammalian cells were then incubated for 3 days, after which 20 μl 500-μM resazurin was added to each well. Plates were incubated for a further 4 h before measuring fluorescence as above.
On the technique in general: Alamar Blue is a resazurin reagent that responds to reducing activity.

The test system of test [2] is human fibroblasts (MRC5). The experiment in a line: DMSO tolerance of the resazurin assay, human fibroblasts. It counts as cell-based. The procedure: as §1
For test [3], the system named is bloodstream forms of Trypanosoma brucei. The experiment in a line: Resazurin cell viability assay, EC50 determinations against T. brucei. It counts as cell-based, T. b. brucei (strain 427).
The test system of test [4] is MRC5 cells. The experiment in a line: Resazurin cell viability counter-screen, EC50 determinations against mammalian cells. It counts as cell-based, human. The settings on record: for EC50: read-out: EC50 vs. MRC5.
Test [5] concerns T. brucei.
For test [6], the system named is T. brucei. The test can be described thus: microbe, parasite or virus in culture. The settings on record: Trypanosoma brucei, read-out: EC50 by direct counting of cell growth.
[7] abbreviates: Trypanosoma brucei, 72 h, read-out: EC50 of standard drugs against T. brucei.
[8] abbreviates: read-out: EC50 of standard drugs against T. brucei.
Where [9] appears, read: Trypanosoma brucei, 72 h, read-out: EC50 vs. T. brucei.

Counter-ions that a name gives are not always drawn. Like-named read-outs stand apart in the source and are kept apart here.

As to `C[S+](C)[O-]` [DMSO], the figures for the “IC50 of DMSO” value in test [1] (3 days incubation) and in test [2] (3 days incubation) were 0.80 ± 0.06 % (v/v) and 1.04 ± 0.08 % (v/v), respectively. The Attenuation of fluorescence in test [1] (DMSO 0.5%) stood at 20%; in test [2] (DMSO 0.5%), 15%.
With `N=C(N)c1ccc(OCCCCCOc2ccc(C(=N)N)cc2)cc1` [Pentamidine isethionate], the “EC99 (calculated/predicted from EC50 and Hill slope)” value in test [3] is on record as 37 nM. Besides, the concentration giving a half-maximal response (EC50) (commonly the concentration at which the effect is half-maximal) came to 8.1 ± 0.54 nM in test [3] (setting [7]) and 8 nM in test [3] (setting [8]). Moreover, in test [4], the Selectivity was found to be 3400. In addition, the “Effect on T. brucei culture growth” value in test [5] is recorded as “cytocidal effect”. For the same compound, the “Time for cell density to drop below the limit of detection (1 × 10^3 cells ml−1)” value in test [5] was no more than 40 h.
As to `CCCCCCCCCCCCC/C=C/[C@@H](O)[C@@H](N)CO` [Sphingosine], the concentration giving a half-maximal response (EC50) came out at 820 ± 78 nM in test [3] (setting [9]) and 4600 ± 2500 nM in test [4] (Homo sapiens, MRC5, 72 h). The same compound yielded a Selectivity in test [4] of 5.7.
For the compound `Cc1ccc(C(=O)Nc2ccc(S(=O)(=O)O)c3cc(S(=O)(=O)O)cc(S(=O)(=O)O)c23)cc1NC(=O)c1cccc(NC(=O)Nc2cccc(C(=O)Nc3cc(C(=O)Nc4ccc(S(=O)(=O)O)c5cc(S(=O)(=O)O)cc(S(=O)(=O)O)c45)ccc3C)c2)c1` [Suramin hexasodium], the EC50 in test [3] (setting [7]) is 20.1 ± 1.1 nM; in test [3] (setting [9]), less than 70 nM; in test [3] (read-out: EC50 vs. T. brucei), 68 ± 3.5 nM; in test [4] (Homo sapiens, MRC5, 72 h), greater than 50000 nM. The same compound showed a Selectivity in test [4] greater than 710. Moreover, in test [4], the “Selectivity / specificity for T. brucei over human fibroblasts” value was greater than 700 fold.
With `CC(=O)O[C@H]1C(=O)[C@@]2(C)[C@H]([C@H](OC(=O)c3ccccc3)[C@]3(O)C[C@H](OC(=O)[C@H](O)[C@@H](NC(=O)c4ccccc4)c4ccccc4)C(C)=C1C3(C)C)[C@]1(OC(C)=O)CO[C@@H]1C[C@@H]2O` [Taxol], the EC50 in test [3] (setting [9]) amounted to 3.3 ± 0.071 nM; in test [4] (Homo sapiens, MRC5, 72 h), 6.6 ± 9.8 nM. In test [4], this compound gave a Selectivity of 2.
Turning to `CC[C@]1(O)C[C@@H]2CN(CCc3c([nH]c4ccccc34)[C@@](C(=O)OC)(c3cc4c(cc3OC)N(C)[C@H]3[C@@](O)(C(=O)OC)[C@H](OC(C)=O)[C@]5(CC)C=CCN6CC[C@]43[C@@H]65)C2)C1.O=S(=O)(O)O` [Vinblastine sulfate salt], the 50% effective concentration (EC50) in test [3] (read-out: EC50 vs. T. brucei) stood at 94 ± 6 nM; in test [4], 780 ± 910 nM. Besides, the Selectivity in test [4] is reported as 8.3.
On to `CC[C@]1(O)C[C@H]2CN(CCc3c([nH]c4ccccc34)[C@@](C(=O)OC)(c3cc4c(cc3OC)N(C=O)[C@H]3[C@@](O)(C(=O)OC)[C@H](OC(C)=O)[C@]5(CC)C=CCN6CC[C@]43[C@@H]65)C2)C1` [Vincristine sulfate], for which the concentration for a half-maximal effect (EC50) was 30 ± 1 nM in test [3] (Trypanosoma brucei, 72 h, LOPAC hits (library screening), 3 days incubation, mean of 3 determinations weighted to standard error, read-out: EC50 vs. T. brucei) and 0.6 ± 1 nM in test [4] (Homo sapiens, MRC5, 72 h). In test [4], this compound gave a Selectivity of 0.02.
For the compound `NCCCC(N)(C(=O)O)C(F)F` (stereo not drawn) [eflornithine, difluoromethylornithine], the “EC99 (calculated from EC50 and Hill slope)” value in test [3] is 77000 nM. For the same compound, the EC50 came out at 22400 ± 1100 nM in test [3] (setting [7]), 22000 nM in test [3] (setting [8]) and 17100 ± 100 nM in test [6]. In addition, in test [5] (10 × EC50), the “Time after which cell growth was arrested” value came out at 30 h. The “Effect on T. brucei culture growth” value in test [5] (10 × EC50, 3 days) is “cytostatic effect”.
Dequalinium analogue, C-14 linker: in test [3] (read-out: EC50 vs. T. brucei), the half-maximal effective concentration (EC50) came to 70 ± 4.6 nM. In test [4], the Selectivity is recorded as 14.
Regarding Oligomycin A, the concentration for a half-maximal effect (EC50) in test [3] (read-out: EC50 vs. T. brucei) turned out to be 150 ± 3.1 nM. Moreover, in test [4], the Selectivity came out at 120 and the “Selectivity / specificity for T. brucei over human fibroblasts” value is “greater than 100 fold”.
